Measured values reported in PMC3963473, “Structure–Activity Relationship Studies of Pyrrolone Antimalarial Agents” (Chemmedchem, 2013).
Values after ≈ are worked out from the molar mass of the structure shown. Where two headings read alike, the source gives them in different places.

Tests used:
Plasmodium falciparum K1 = test: microbe, parasite or virus in culture; format: cell-based; conditions: for EC50: Plasmodium falciparum, K1, read-out: EC50 P. falc.; for EC50 (P. falciparum K1): values in nM
Description: (§1) V. Design and Results of the in vitro & in vivo Studies.
A. Drug inhibition of in vitro cultured P. falciparum parasite:2 All in vitro assays were carried out twice independently. In vitro activity against the erythrocytic stages of P. falciparum was determined by using a 3H-hypoxanthine incorporation assay,5-6 using the […]
were dissolved in DMSO at 10 mg/mL and added to parasite cultures incubated in RPMI […]
haematocrit (0.3% parasitaemia). Serial doubling dilutions of each drug were prepared in […]
After 48 h, 50 µL of 3H-hypoxanthine (= 0.5 µCi) was added to each well of the plate. The plates were incubated for an additional 24 h under the same conditions. The plates were then harvested with a Betaplate cell harvester (Wallac, Zurich, Switzerland), and the red blood cells were transferred onto a glass fiber filter and then washed with distilled water. The dried filters were inserted into a plastic foil with 10 mL of scintillation fluid and were counted in a Betaplate™ liquid scintillation counter (Wallac, Zurich, […]

[1] = test system: green fluorescent protein (GFP)-transfected Plasmodium berghei ANKA; format: in vivo; conditions: for [%] Reduction parasitaemia: mice, 10 % DMSO in water; for Survival: in vivo
Description: In vivo efficacy studies: The protocols are described in the Supporting Information. In vivo efficacy studies in mice were conducted at the Swiss Tropical & Public Health Institute (Basel, Switzerland) according to the rules and regulations for the protection of animal rights (“Tierschutzverordnung”) of the Swiss “Bundesamt für Veterinärwesen”. They were approved by the veterinary office of Canton Basel-Stadt, Switzerland.
C. In vivo antimalarial efficacy studies (4 days treatment).2
In vivo antimalarial activity was assessed basically as previously described. Groups of […]
erythrocytes on day 0 with GFP-transfected P. berghei strain ANKA. .Unless otherwise indicated compounds were formulated in 100% DMSO, diluted 10-fold in distilled water and administered intraperitoneally or orally in a volume of 10 mL kg-1 on four consecutive days (4, 24, 48 and 72 h post infection). Parasitemia was determined on day 4 post infection (24 h after last treatment) by FACS analysis. Activity was calculated as the difference between the mean per cent parasitaemia for the control (n=5 mice) and treated groups expressed as a per cent relative to the control group. The survival time in days was also recorded up to 30 days after infection. A compound was considered curative if the animal survived to day 30 after infection with no detectable parasites. All protocols and procedures used in the current study were reviewed and approved by the local veterinary authorities of the Canton Basel-Stadt.

L6 cells = test: In vitro cytotoxicity assay in L6 cells (Alamar Blue); format: cell-based; conditions: Rattus norvegicus, mean of two independent assays, read-out: EC50 L6 cells
Description: as §1
A. Drug inhibition of in vitro cultured P. falciparum parasite:2 All in vitro assays were carried out twice independently. In vitro activity against the erythrocytic stages of P. […]
B. In vitro cytotoxicity assay:2 Assays were performed in 96-well microtiter plates, each […]
mM) and 10% fetal bovine serum, and 4 x 10^4 L-6 cells (a primary cell line derived from rat skeletal myoblasts). Serial drug dilutions of seven 3-fold dilution steps covering a range […]
After 72 h of incubation the plates were inspected […]
of Alamar Blue was then added to each well and the plates incubated for another 2 h.
Then the plates were read with a Spectramax Gemini XS microplate fluorometer (Molecular Devices Cooperation, Sunnyvale, CA, USA) using an excitation wave length of […]
Data were analysed using the microplate reader software Softmax Pro (Molecular Devices Cooperation, Sunnyvale, CA, USA).

[2] = Aqueous solubility estimated by nephelometry; format: physicochemical; conditions: kinetic from dmso stock
Description: III. Physicochemical Evaluation […]
Solubility Estimation: Aqueous solubility was estimated by nephelometry.
Compound in DMSO was spiked into either water, pH 6.5 phosphate buffer or 0.01N HCl
(approx. pH 2.0) with the final DMSO concentration being 1%. Samples were then
analyzed by Nephelometry to determine the solubility range as described previously.1

Plasmodium berghei = test system: Plasmodium berghei; design: method as in PMID 23517371; conditions: P. berghei mouse model; dosed intraperitoneally; cited from earlier work
[3] = Table 2, C-ring variants, L6 cells
[4] = Table 2, water, read-out: Solubility water
[5] = Table 1, A-ring variants, mammalian L6 cells
[6] = Table 1, water, nephelometry, 1% DMSO, read-out: Solubility water
[7] = aqueous buffer, pH 6.5 phosphate buffer, nephelometry, 1% DMSO, read-out: Solubility pH 6.5
[8] = simulated gastric fluid, pH 2.0 (0.01N HCl), nephelometry, 1% DMSO, read-out: Solubility pH 2.0

SMILES	EC50 (Plasmodium falciparum K1)	EC50 (L6 cells; [3])	solubility [2, 4]	EC50 (L6 cells; [5])	melting point	solubility [2, 6]	further results
Cc1cc(/C=C2/Nc3cc[nH]c(=O)c3C2=O)c(C)n1-c1ccccc1C(F)(F)F [Compound 56]	0.047 µM	54 µM	> 125 µM	–	–	–	[%] Reduction parasitaemia ([1]; 50 mg kg^−1 day^−1 ip): 21.8%; [%] Reduction parasitaemia ([1]; 100 mg kg^−1 day^−1 po): 13.6%; Survival ([1]; ip): 4 days; Survival ([1]; po): 4 days
CCOC(=O)C1=C(C)N/C(=C/c2cc(C)n(C3CCN(Cc4ccc(F)cc4C(F)(F)F)CC3)c2C)C1=O [Compound 44]	0.0004 µM	–	–	1.2 µM	145 to 148 °C	> 125 µM	EC50 (P. falciparum K1) (Plasmodium falciparum K1): sub-nanomolar
CCOC(=O)C1=C(C)N/C(=C/c2cc(C)n(C3CCN(Cc4ccc(C(F)(F)F)nc4)CC3)c2C)C1=O [Compound 43]	0.004 µM	–	–	49 µM	–	> 125 µM	[%] Reduction parasitaemia ([1]; 50 mg kg^−1 day^−1 ip): 10.0%; activity in vivo (in words) ([1]; 50 mg/kg ip and 100 mg/kg po): failed to show significant activity in vivo; [%] Reduction parasitaemia ([1]; 100 mg kg^−1 day^−1 po): 0.0%; Survival ([1]; ip): 4 days; Survival ([1]; po): 4 days
CCOC(=O)C1=C(C)N/C(=C/c2cc(C)n(C3CCN(Cc4ccc(C(F)(F)F)cc4)CC3)c2C)C1=O [Compound 28]	0.002 µM	–	–	5 µM	–	> 125 µM	solubility [2, 7]: 6 to 12 µM (≈ 3.09 to 6.19 µg/mL); solubility [2, 8]: 48 to 97 µM (≈ 24.7 to 50 µg/mL)
CCOC(=O)C1=C(C)N/C(=C/c2cc(C)n(C3CCN(Cc4ccccc4C(F)(F)F)CC3)c2C)C1=O [Compound 29]	0.0005 µM	–	–	1.7 µM	–	> 125 µM	EC50 (P. falciparum K1) (Plasmodium falciparum K1): sub-nanomolar
CCn1ccc2c(c1=O)C(=O)/C(=C\c1cc(C)n(-c3ccccc3C(F)(F)F)c1C)N2 [Compound 58]	0.021 µM	36 µM	> 125 µM	–	204 to 205 °C	–	–
CCOC(=O)C1=C(C)N/C(=C/c2cc(C)n(C3CCN(C(C)c4ccccc4C(F)(F)F)CC3)c2C)C1=O (stereo not drawn) [Compound 36]	0.001 µM	–	–	3 µM	138 to 142 °C	> 125 µM	–
CCOC(=O)C1=C(C)N/C(=C/c2cc(C)n(C3CCN(CC4CCCCC4)CC3)c2C)C1=O [Compound 40]	0.016 µM	–	–	13 µM	184 to 186 °C	> 125 µM	–
CCOC(=O)C1=C(C)N/C(=C/c2cc(C)n(-c3ccccc3C(F)(F)F)c2C)C1=O [TDR32750]	–	–	–	–	–	–	depression of parasitaemia (Plasmodium berghei): > 99%
CCOC(=O)C1=C(/C=C/N(C)C)N/C(=C/c2cc(C)n(-c3ccccc3C(F)(F)F)c2C)C1=O [Compound 55, (E)-Ethyl 5-((2,5-dimethyl-1-(2-(trifluoromethyl)phenyl)-1H-pyrrol-3-yl)methylene)-2-((E)-2-(dimethylamino)vinyl)-4-oxo-4,5-dihydro-1H-pyrrole-3-carboxylate]	0.061 µM	56 µM	> 125 µM	–	–	–	–
Cc1cc(/C=C2/Nc3ccn(Cc4ccc(C(F)(F)F)cc4)c(=O)c3C2=O)c(C)n1-c1ccccc1C(F)(F)F [Compound 63]	0.046 µM	54 µM	89 µM (≈ 49.6 µg/mL)	–	235 to 240 °C	–	–
CCOC(=O)C1=C(C)N/C(=C/c2cc(C)n(C3CCN(CCc4ccc(OC)cc4)CC3)c2C)C1=O [Compound 32]	0.083 µM	–	–	72 µM	–	–	solubility [2, 7]: 25 to 51 µM (≈ 12.3 to 25.1 µg/mL); solubility [2, 8]: 100 to 200 µM (≈ 49.2 to 98.3 µg/mL)
CCOC(=O)C1=C(C)N/C(=C/c2cc(C)n(C3CCN(CC)CC3)c2C)C1=O [Compound 20]	2.4 µM	–	–	7.6 µM	140 to 145 °C	–	solubility [2, 7]: > 250 µM; solubility [2, 8]: > 250 µM
CCOC(=O)C1=C(C)N/C(=C/c2cc(C)n(C3CCN(CCc4ccc(F)cc4)CC3)c2C)C1=O [Compound 34]	0.096 µM	–	–	22 µM	–	–	solubility [2, 7]: 13 to 26 µM (≈ 6.23 to 12.5 µg/mL); solubility [2, 8]: 52 to 100 µM (≈ 24.9 to 48 µg/mL)
Cc1cc(/C=C2/Nc3ccn(Cc4ccncc4)c(=O)c3C2=O)c(C)n1-c1ccccc1C(F)(F)F [Compound 64]	0.077 µM	38 µM	> 125 µM	–	215 to 240 °C	–	–
CCOC(=O)C1=C(C)N/C(=C/c2cc(C)n(C3CCN(Cc4cocn4)CC3)c2C)C1=O [Compound 48]	0.018 µM	–	–	0.16 µM	180 to 182 °C	> 125 µM	–
Cc1cc(/C=C2/Nc3ccn(C)c(=O)c3C2=O)c(C)n1-c1ccccc1C(F)(F)F [Compound 57]	0.014 µM	29 µM	> 125 µM	–	–	–	[%] Reduction parasitaemia ([1]; 50 mg kg^−1 day^−1 ip): 99.9%; [%] Reduction parasitaemia ([1]; 100 mg kg^−1 day^−1 po): 50.5%; Survival ([1]; po): 8 days
CCOC(=O)C1=C(C)N/C(=C/c2cc(C)n(C3CCN(Cc4ccccc4)CC3)c2C)C1=O [Compound 17, (E)-Ethyl 5-((1-(1-benzylpiperidin-4-yl)-2,5-dimethyl-1H-pyrrol-3-yl)methylene)-2-methyl-4-oxo-4,5-dihydro-1H-pyrrole-3-carboxylate]	0.035 µM	–	–	20 µM	150 to 155 °C	> 125 µM	solubility [2, 7]: 14 to 28 µM (≈ 6.27 to 12.5 µg/mL); solubility [2, 8]: 56 to 110 µM (≈ 25.1 to 49.2 µg/mL)
CCOC(=O)C1=C(C)N/C(=C/c2cc(C)n(C3CCN(Cc4ccc(-c5noc(C)n5)cc4)CC3)c2C)C1=O [Compound 51]	0.001 µM	–	–	11 µM	195 to 200 °C	> 125 µM	–
CCOC(=O)C1=C(C)N/C(=C/c2cc(C)n(C3CCN(c4ccc(C(F)(F)F)cc4)CC3)c2C)C1=O [Compound 30]	0.024 µM	–	–	10 µM	153 to 158 °C	> 125 µM	–
